Assay results from patent US4590189A, “Condensed pyrrolinone derivatives, their production and use” (Takeda Chemical Industries, Ltd., priority 1982, dated 1986).

Biological target: benzodiazepine receptor
Experiment: Specific benzodiazepine receptor binding: displacement of [^3 H] diazepam in crude mitochondrial fractions of rat cerebral cortex
Parameters: species or system rat (male SD strain)
Settings: [^3 H] diazepam 2 nM, pH 7.4, 4° C., 20 minutes; read-out: IC50, effect on specific binding of [^3 H] diazepam
Procedure: The pharmacological properties of the compounds (I) of this invention were investigated by determining the substituting power thereof for radioactive diazepam from a benzodiazepine receptor.
Specific benzodiazepine receptor binding was carried out according to the method of C. Braestrup and R. F. Squiras (European J. Pharmacol., Vol. 48, 263-270, 1978). Thus, crude mitochondrial fractions obtained from the cerebral cortex of male SD strain rats 9 to 10 weeks of age were suspended in 50 mM Tris-HCl buffer (pH 7.4) and incubated with one of a series of concentrations of the test compound and [^3 H] diazepam (final concentration 2 nM) at 4° C. for 20 minutes. Then, the suspension was filtered through a Whatman GF/B glass fiber filter and the radioactivity of [^3 H] diazepam on the filter was measured by the liquid scintillation method. The concentration of the test drug which caused a 50% inhibition of [^3 H] diazepam specific binding was taken as the IC50 value.

SMILES | IC50 [nM]
COc1ccc(N2C(=O)c3ccc(N)cc3C2CC(=O)N2CCCCC2)cc1 (stereo not drawn) | 3.8
CN(Cc1ccccc1)C(=O)CC1c2ccccc2C(=O)N1c1ccccc1 (stereo not drawn) | 19.5
O=C(CC1c2ccccc2C(=O)N1c1ccc(Cl)cc1)N1CCCCC1 (stereo not drawn) | 8.86
COc1ccc(N2C(=O)c3ccc(Cl)cc3C2CC(=O)N2CCN(C)CC2)cc1 (stereo not drawn) | 1.99
COc1ccc(N2C(=O)c3ccccc3C2CC(=O)N2CCSC2)cc1 (stereo not drawn) | 4.9
O=C(CC1C2=C(SCCS2)C(=O)N1c1ccc(Cl)cc1)N1CCCCCC1 (stereo not drawn) | 5.75
COc1ccc(N2C(=O)c3ccc(Cl)cc3C2CC(=O)N2CCCCC2)cc1 (stereo not drawn) | 0.794
O=C(CC1C2=C(SCCS2)C(=O)N1c1ccc(Cl)cc1)N1CCCCC1 (stereo not drawn) | 9.55
COc1ccc(N2C(=O)c3ccccc3C2CC(=O)N2CCCCC2)cc1 (stereo not drawn) | 4.46
COc1ccc(N2C(=O)C3=C(SCCS3)C2CC(=O)N2CCCCC2)cc1 (stereo not drawn) | 1.05
O=C(CC1c2ccccc2C(=O)N1c1ccc2ccc(Cl)nc2n1)N1CCCCC1 (stereo not drawn) | 0.645
O=C(CC1C2=C(SCCS2)C(=O)N1c1ccccc1)N1CCCCC1 (stereo not drawn) | 7.58
